Measurements reported in patent US6063777A, “Iminochlorinaspartic acid derivatives” (Wyeth Lederle Japan, Ltd., priority 1996, dated 2000).
Values after ≈ are worked out from the molar mass of the structure shown.

Experiments:
[1] = system: cancerous tissues; experiment: Accumulability to cancerous tissues and excretion from normal tissues (general findings); type: in vivo
[2] = system: choroidal neoplastic vessels; experiment: Occlusion of choroidal neoplastic vessels by PDT, histological findings 24 hours after laser irradiation; type: in vivo, rats (Long Evance Rats); conditions: for Occlusion of choroidal neoplastic vessels: 16 mg/kg
Protocol: (§1) The following experiments were performed to investigate the optimal treatment parameters (timing of laser irradiation after dosing of the compound; laser irradiation dosage) for selective occlusion of choroidal neoplastic vessels by PDT using the compound of the present invention and a diode laser (produced by Hamamatsu Photonics; wavelength: 672 nm).
(§2) Photocoagulation was induced in rats (Long Evance Rats weighing 200-300 g) by Argon green laser irradiation (irradiation diameter: 100 μm, 140 mW, 0.1 sec) near the retinal papilla on funduc oculi. Ten days after photocoagulation, fundus photographs and fluorescein angiographs were taken and the animals showing development of choroidal neovascularization were used for experiments at the 11th day.
(§3) The compound of the present invention was administered via the tail vein at a dose of 16 mg/kg. After administration, time course distribution of the compound in the eyeball tissues was observed by fluorescence microscopy.
(§4) Laser irradiation was done by using the above-mentioned diode laser. The laser beam was confirmed to extend in the range of 500 μm in diameter on the retinal surface. Duration of irradiation was 4 minutes and the irradiation intensity varied at 30.6, 91.7, 152.9 and 244.9 mW/cm^2 on the retinal surface. These values correspond to 7.4, 22.0, 36.7 and 58.8 J/cm^2, respectively.
(§5) Assessment of the PDT using the compound of the present invention was made based on the fundus photographs taken with a fundus camera (produced by Jenesis Kowa) at 1 hour and 24 hours after laser irradiation. Occlusion of the neoplastic vessels and damage to the surrounding tissues were investigated by fluorescein antiography and histological examinations to assess the selectivity of the therapeutic effect.

[3] = Laser irradiation to extirpated organ: distribution (cancer/organ ratio) by surface fluorescence, N2-pulsed laser, mice bearing Colon 26; type: in vivo, CDF1 mice; conditions: mouse, tumor/plasma, sodium salt, 10 mg/kg intravenous
Protocol: CDF1 mice (5 per group) were implanted with tumor tissues of colon cancer Colon 26. Two weeks after the implantation, the mice were given an intravenous injection of sodium salt of each of compounds (I) and (II) (10 mg/kg for each mouse) which had been diluted with a distilled water for injection. At 3 hrs, 6 hrs and 12 hrs after the injection, the blood samples were collected and the organs bearing the tumor tissue were extirpated, irradiated with N2 -pulsed laser (N2, wavelength: 337 nm, 2 ns), and the excited fluorescent spectrum was measured. The wavelengths in the range of 600 to 900 nm were examined based on the peak wavelength of NADH at 470 nm (determination of the distribution of the test compound in the organ by the surface fluorescence method using N2 -pulsed laser spectrophotometry). That is, cancer/organ (or plasma) ratio was determined by calculating the peak wavelength in the range of 600 to 900 nm when the peak wavelength at 470 nm was considered as the basic value, 1.

[4] = system: albumin; experiment: Albumin test (change in UV absorption spectrum in mixture with albumin); type: binding
Source text: When compound (I) was examined by albumin test [that is, a convenient test method for evaluating the affinity to cancerous tissues, in which a chlorin derivative is examined on the change in ultraviolet (UV) absorption spectrum in a mixture form with albumin and in which one of the present inventors has found a certain rule] and dancyl methionine test [that is, a convenient test method for evaluating the strength of the photoreactivity by thin layer chromatography (TLC) or high performance liquid chromatography (HPLC)]

[5] = system: eyeball tissues; experiment: Time course distribution of the compound in eyeball tissues by fluorescence microscopy; type: in vivo, rats (Long Evance Rats); conditions: 16 mg/kg tail vein
Protocol: as §2, §3

[6] = Absorption wavelength / molar absorption coefficient; type: physicochemical
[7] = Stability in vivo and in vitro
[8] = Water solubility; type: physicochemical
[9] = system: choroidal arteries and veins; experiment: Occlusion of choroidal arteries and veins by PDT, histological findings 24 hours after laser irradiation; type: in vivo, rats (Long Evance Rats); conditions: 16 mg/kg
Protocol: as §1, §2, §3, §4, §5

[10] = system: retinal capillaries; experiment: Occlusion of retinal capillaries by PDT, histological findings 24 hours after laser irradiation; type: in vivo, rats (Long Evance Rats); conditions: 16 mg/kg
Protocol: as §1, §2, §3, §4, §5

[11] = Phosphorescence life time; type: physicochemical
[12] = 7.4 J/cm^2, irradiation 60 min after administration
[13] = 22.0 J/cm^2, irradiation 60 min after administration
[14] = 22.0 J/cm^2, irradiation 120 min after administration
[15] = 22.0 J/cm^2, irradiation 240 min after administration
[16] = 22.0 J/cm^2, irradiation immediately after administration
[17] = 36.7 J/cm^2, irradiation 60 min after administration
[18] = 36.7 J/cm^2, irradiation 120 min after administration
[19] = 36.7 J/cm^2, irradiation 240 min after administration
[20] = 36.7 J/cm^2, irradiation immediately after administration
[21] = 58.8 J/cm^2, irradiation 60 min after administration
[22] = 58.8 J/cm^2, irradiation 120 min after administration
[23] = 58.8 J/cm^2, irradiation 240 min after administration
[24] = 58.8 J/cm^2, irradiation immediately after administration
[25] = 7.4 J/cm^2, irradiation 120 min after administration
[26] = 7.4 J/cm^2, irradiation 240 min after administration

- Kp at 3 h ([3]; 3 hr): 1.48
- Kp at 6 h ([3]; 6 hr): 1.18
- Kp at 12 h ([3]; 12 hr): 2.37
- fluorescence in the entire choroidal neovascular tissues ([5]; 5 minutes after administration): weak fluorescence
- fluorescence in lumens of large choroidal vessels and retinal artery wall ([5]; 2 hours after administration): diminished
- fluorescence in the choriocapillaris veins ([5]; 2 hours after administration): disappeared
- fluorescence in choroidal artery wall and retinal vessels ([5]; 4 hours after administration): gradually diminished
- fluorescence in the choroidal neoplastic vessels ([5]; 4 hours after administration): persisted
- fluorescence in choroidal neoplastic vessels and other vessels ([5]; 24 hours after administration): all disappeared
- longest wavelength absorption end [6]: ≥ 670 nm
- water solubility [8]: good water solubility
- solubility ([8]; water, aqueous solution, read-out: high concentration solution (water solubility)): 50 mg/mL (≈ 59.5 mM)
- phosphorescence life time [11]: long phosphorescence life time
Compound: C=Cc1c(C)c2cc3nc(cc4[nH]c(cc5nc(cc1[nH]2)C(C)=C5CCC(=O)NC(CC(=O)O)C(=O)O)c(CCC(=O)NC(CC(=O)O)C(=O)O)c4C)C(C)(O)C3=CC=NO (stereo not shown) [Compound (I)]
- accumulability to cancerous tissues ([1]; compared with compound of formula (II)): remarkably superior accumulability to cancerous tissues as compared with the compound of formula (II)
- excretion from normal tissues ([1]; in vivo): quick excretion property from normal tissues
- Occlusion of choroidal neoplastic vessels [2, 12]: Closed
- Occlusion of choroidal neoplastic vessels ([2]; 7.4 J/cm^2, irradiation immediately after administration): Closed
- selective occlusion of choroidal neoplastic vessels and choriocapillaris ([2]; 7.4 J/cm^2 immediately after administration): selective occlusion of the choroidal neoplastic vessels and choriocapillaris was achieved without causing serious damage to the retinal capillaries and choroidal arteries and veins
- Occlusion of choroidal neoplastic vessels [2, 13]: Closed
- Occlusion of choroidal neoplastic vessels [2, 14]: Closed
- Occlusion of choroidal neoplastic vessels [2, 15]: Closed
- Occlusion of choroidal neoplastic vessels [2, 16]: Closed
- selective occlusion of choroidal neoplastic vessels and choriocapillaris ([2]; 22.0 J/cm^2 at 2-4 hours after administration): selective occlusion of the choroidal neoplastic vessels and choriocapillaris was achieved without causing serious damage to the retinal capillaries and choroidal arteries and veins
- Occlusion of choroidal neoplastic vessels [2, 17]: Closed
- Occlusion of choroidal neoplastic vessels [2, 18]: Closed
- Occlusion of choroidal neoplastic vessels [2, 19]: Closed
- Occlusion of choroidal neoplastic vessels [2, 20]: Closed
- Occlusion of choroidal neoplastic vessels [2, 21]: Cldsed
- Occlusion of choroidal neoplastic vessels [2, 22]: Closed
- Occlusion of choroidal neoplastic vessels [2, 23]: Closed
- Occlusion of choroidal neoplastic vessels [2, 24]: Closed
- affinity to albumin [4]: good affinity to albumin
- transferability to cancerous tissues (albumin test) [4]: excellent transferability to cancerous tissues
- fluorescence in choroid, lumens of choriocapillaris, choroidal arteries and veins ([5]; 5 minutes after administration): fluorescence was observed in the lumens of the choriocapillaris, choroidal arteries and veins
- fluorescence in choroidal artery wall ([5]; 5 minutes after administration): also observed in the choroidal artery wall
- fluorescence in retina, artery wall ([5]; 5 minutes after administration): prominent fluorescence was observed in the artery wall
- fluorescence in retina, lumens of the blood capillaries ([5]; 5 minutes after administration): weak fluorescence was observed in the lumens of the blood capillaries
- fluorescence intensity, neoplastic vessels versus surrounding tissues ([5]; 5 minutes after administration): did not clearly differ between the neoplastic vessels and the surrounding tissues
- fluorescence from the whole neoplastic vessels ([5]; 30 minutes to 1 hour after administration): fluorescence from the whole neoplastic vessels increased
- fluorescence in choroidal artery wall ([5]; 2 hours after administration): prominent fluorescence was observed in the choroidal artery wall
- stability in vivo and in vitro [7]: high stability in vivo, as well as in vitro
- Occlusion of choroidal arteries and veins [9, 12]: Closed
- Occlusion of choroidal arteries and veins [9, 25]: Open
- Occlusion of choroidal arteries and veins [9, 26]: Open
- Occlusion of choroidal arteries and veins [9, 13]: Closed
- Occlusion of choroidal arteries and veins [9, 14]: Open
- Occlusion of choroidal arteries and veins [9, 15]: Open
- Occlusion of choroidal arteries and veins [9, 17]: Closed
- Occlusion of choroidal arteries and veins [9, 18]: Open
- Occlusion of choroidal arteries and veins [9, 19]: Open
- Occlusion of choroidal arteries and veins [9, 20]: Closed
- Occlusion of choroidal arteries and veins [9, 21]: Closed
- Occlusion of choroidal arteries and veins [9, 22]: Open
- Occlusion of choroidal arteries and veins [9, 23]: Open
- Occlusion of choroidal arteries and veins [9, 24]: Closed
- Occlusion of retinal capillaries [10, 12]: Closed
- Occlusion of retinal capillaries [10, 25]: Open
- Occlusion of retinal capillaries [10, 26]: Open
- Occlusion of retinal capillaries [10, 13]: Closed
- Occlusion of retinal capillaries [10, 14]: Open
- Occlusion of retinal capillaries [10, 15]: Open
- Occlusion of retinal capillaries [10, 16]: Closed
- Occlusion of retinal capillaries [10, 17]: Closed
- Occlusion of retinal capillaries [10, 18]: Closed
- Occlusion of retinal capillaries [10, 19]: Closed
- Occlusion of retinal capillaries [10, 20]: Closed
- Occlusion of retinal capillaries [10, 21]: Closed
- Occlusion of retinal capillaries [10, 22]: Closed
- Occlusion of retinal capillaries [10, 23]: Closed
- Occlusion of retinal capillaries [10, 24]: Closed
